Test system: ANKA strain of P. berghei
Experiment: Single dose STI in vivo screen in infected mice
Parameters: species or system Plasmodium berghei
Settings: for Survival (days) 10 mg/kg po: single 10 mg/kg po in 3% ethanol and 7% Tween 80; for Survival (days) 10 mg/kg po / Survival (days) 10 mg/kg SSV po / Survival (days) 10 mg/kg sc: untreated 6-7 days; for Activity (%) 10 mg/kg po: single 10 mg/kg po in 3% ethanol and 7% Tween 80 on day 1 post-infection; for Survival (days) 10 mg/kg SSV po: single 10 mg/kg po in SSV; for Survival (days) 10 mg/kg sc: single 10 mg/kg sc in 3% ethanol and 7% Tween 80; for Activity (%) 10 mg/kg sc: single 10 mg/kg sc in 3% ethanol and 7% Tween 80 on day 1 post-infection; for Survival (days) 3 mg/kg SSV po / Activity (%) 3 mg/kg SSV po: single 3 mg/kg po in SSV
Method: In the single dose STI in vivo screen, Moro SPF or NMRI mice infected with the ANKA strain of P. berghei (groups of three mice) were treated on day one post-infection with trioxolanes dissolved or suspended in 3% ethanol and 7% Tween 80. […] SSV consists of 0.5% w/v CMC, 0.5% v/v benzyl alcohol, 0.4% v/v Tween 80, and 0.9% w/v sodium chloride in water. Antimalarial activity was measured by percent reduction in parasitemia on day three post-infection and survival times compared to an untreated control group. Survival to day 30 post-infection is considered to be a cure. […] Other factors influencing antimalarial activity include the stability of carbon radicals formed by β-scission subsequent to the initial electron transfer to the peroxide bond and the influence of steric effects remote from the peroxide bond on the interactions between carbon radicals and potential drug targets.
Moro NMRI male mice (Fu Albino specific pathogen free) weighing 18±2 g were infected intravenously (i.v.) with 2×10^7 P. berghei ANKA strain-infected erythrocytes from donor mice on day 0 of the experiment. From donor mice with circa 30% parasitemia, heparinized blood was taken and diluted in physiological saline to 10^8 parasitized erythrocytes per ml. An aliquot (0.2 ml) of this suspension was injected i.v. into experimental and control groups of mice. […] Throughout the experiments, mice were kept in groups of three or five animals in Makrolon type II cages in an air-conditioned animal room at 22 to 23° C.
They were administered per os (p.o.) in a total volume of 0.01 ml per gram of mouse. The activity of the compound was determined by a variety of methods outlined in subsequent sections. Survival time was also recorded, and survival to day 30 post-infection was considered to be a cure.

[1] = percent reduction in parasitemia on day 3
[2] = single 10 mg/kg po in standard suspending vehicle (SSV) on day 1 post-infection, percent reduction in parasitemia on day 3

Row | SMILES | Survival (days) 10 mg/kg po | Activity (%) 10 mg/kg po [1] | Survival (days) 10 mg/kg SSV po | Activity (%) 10 mg/kg SSV po [2] | Survival (days) 10 mg/kg sc | Activity (%) 10 mg/kg sc [1] | Survival (days) 3 mg/kg SSV po | Activity (%) 3 mg/kg SSV po [1] | Activity (%) 10 mg/kg SSV po (po, 10 mg/kg)
1 | O=C(Nc1ccc(Cl)cc1)N1CCC2(CC1)OOC1(O2)C2CC3CC(C2)CC1C3 (centres unmarked) [OZ192, Adamantane-2-spiro-3′-8′-[(4′-chlorophenylamino)carbonyl]-1′,2′,4′-trioxa-8′-azaspiro[4.5]decane] | 6.0 days | 38% | 7.0 days | 45% | 13.7 days | 99.98% |  |  | 
2 | NC(=O)C1CCN(C(=O)C[C@H]2CC[C@]3(CC2)OO[C@]2(O3)C3CC4CC(C3)CC2C4)CC1 [OZ311] |  |  | 8.6 days | 80% |  |  | 7.0 days | 40% | 
3 | O=C(NC[C@H]1CC[C@]2(CC1)OOC1(O2)C2CC3CC(C2)CC1C3)c1ccccc1O (some centres unmarked) [OZ280] |  |  | 5.7ND days |  |  |  |  |  | 0/ND %
4 | N[C@H]1CCN(C(=O)C[C@H]2CC[C@]3(CC2)OO[C@]2(O3)C3CC4CC(C3)CC2C4)C1 [OZ338] |  |  | 9.8 days |  |  |  | 8.0 days |  | 
5 | OC1(Cc2nc3ccccc3s2)CCC2(CC1)OOC1(O2)C2CC3CC(C2)CC1C3 (centres unmarked) [OZ276] |  |  | 7.3/ND days | 17/ND % |  |  |  |  | 
6 | O=S(=O)(C[C@H]1CC[C@]2(CC1)OO[C@]1(O2)C2CC3CC(C2)CC1C3)c1cccc[n+]1[O-] [OZ324] |  |  | 9.4 days | 60% |  |  | 7.4 days | 26% | 
7 | Cn1nnnc1S(=O)(=O)C[C@H]1CC[C@]2(CC1)OO[C@]1(O2)C2CC3CC(C2)CC1C3 [OZ332] |  |  | 6.0/6.0 days | 8% |  |  | 6.0/6.0 days | 0% | 
8 | Cn1nnnc1SC[C@H]1CC[C@]2(CC1)OO[C@]1(O2)C2CC3CC(C2)CC1C3 [OZ331] |  |  | 9.0 days |  |  |  | 7.0 days | 66% | 
9 | N=C(N)NC(=O)C[C@H]1CC[C@]2(CC1)OO[C@]1(O2)C2CC3CC(C2)CC1C3 [OZ341] |  |  | 8.0 days | 97% |  |  | 7.0 days | 32% | 
10 | O=c1ccn(C[C@H]2CC[C@]3(CC2)OO[C@]2(O3)C3CC4CC(C3)CC2C4)cc1 [OZ302] |  |  | 9.0/9.0 days |  |  |  | 9.0/9.0 days | 88% | 
11 | Cc1ccc(NC(=O)N2CCC3(CC2)OOC2(O3)C3CC4CC(C3)CC2C4)cc1 (centres unmarked) [OZ142] | 6.0 days | 0% | 6.3 days | 2% | 14.3 days | 99.98% |  |  | 
12 | NC(=O)c1ccc(NC[C@H]2CC[C@]3(CC2)OOC2(O3)C3CC4CC(C3)CC2C4)cc1 (some centres unmarked) [OZ286] |  |  | 8.7 days | 99.73% |  |  | 7.0 days | 60% | 
13 | c1cncc(NC[C@H]2CC[C@]3(CC2)OO[C@]2(O3)C3CC4CC(C3)CC2C4)c1 [OZ293] |  |  | 8.8 days | 99.58% |  |  | 7.4 days | 77% | 
14 | CCOC(=O)CNC[C@H]1CC[C@]2(CC1)OO[C@]1(O2)C2CC3CC(C2)CC1C3 [OZ290] |  |  | 9.0 days | 99.64% |  |  | 7.0 days | 95% | 
15 | O=C(NC[C@H]1CC[C@]2(CC1)OOC1(O2)C2CC3CC(C2)CC1C3)c1ccc(O)nc1 (some centres unmarked) [OZ282] |  |  | 8.3 days | 98.5% |  |  | 7.2 days | 53% | 
16 | NC(=O)c1cncn1C[C@H]1CC[C@]2(CC1)OO[C@]1(O2)C2CC3CC(C2)CC1C3 [OZ321] |  |  | 14.0 days |  |  |  | 9.8 days | 64% | 
17 | Cn1ccnc1S(=O)(=O)C[C@H]1CC[C@]2(CC1)OO[C@]1(O2)C2CC3CC(C2)CC1C3 [OZ310] |  |  | 7.8 days | 81% |  |  | 8.2 days | 38% | 
18 | Nc1nccnc1C(=O)NC[C@H]1CC[C@]2(CC1)OO[C@]1(O2)C2CC3CC(C2)CC1C3 [OZ330] |  |  | 12.2 days |  |  |  | 7.2 days | 82% | 
19 | O=C(CNC(=O)c1cccnc1)NC[C@H]1CC[C@]2(CC1)OO[C@]1(O2)C2CC3CC(C2)CC1C3 [OZ316] |  |  | 10.0 days | 69% |  |  | 8.0 days | 7% | 
20 | NC(=O)[C@@H]1CCCN1C[C@H]1CC[C@]2(CC1)OO[C@]1(O2)C2CC3CC(C2)CC1C3 [OZ327] |  |  | 9.8 days | 97% |  |  | 7.0 days | 72% | 
21 | NS(=O)(=O)c1ccc(NC[C@H]2CC[C@]3(CC2)OO[C@]2(O3)C3CC4CC(C3)CC2C4)cc1 [OZ298] |  |  | 9.4 days |  |  |  | 9.0 days | 98% | 
22 | NCCC(=O)NC[C@H]1CC[C@]2(CC1)OO[C@]1(O2)C2CC3CC(C2)CC1C3 [OZ336] |  |  | 9.2 days |  |  |  | 9.6 days | 98% | 
23 | CCNC(=O)NC[C@H]1CC[C@]2(CC1)OO[C@]1(O2)C2CC3CC(C2)CC1C3 [OZ291] |  |  | 8.0 days | 98% |  |  | 6.8 days | 34% | 
24 | CS(=O)(=O)N(CC(N)=O)C[C@H]1CC[C@]2(CC1)OO[C@]1(O2)C2CC3CC(C2)CC1C3 [OZ308] |  |  | 7.8 days | 86% |  |  | 6.6 days | 30% | 
25 | O=C(Cn1ccnc1)N1CCC2(CC1)OOC1(O2)C2CC3CC(C2)CC1C3 (centres unmarked) [OZ103, Adamantane-2-spiro-3′-8′-(1′H-imidazol-1′-ylacetyl)-1′,2′,4′-trioxa-8′-azaspiro[4.5]decane] | 7.3 days | 86% | 6.7 days | 63% | 7.3 days | 87% |  |  | 
26 | Nc1ncccc1C(=O)NC[C@H]1CC[C@]2(CC1)OOC1(O2)C2CC3CC(C2)CC1C3 (some centres unmarked) [OZ284] |  |  | 9.0 days | 97% |  |  | 7.8 days | 61% | 
27 | O=C(Nc1ccccc1)N1CCC2(CC1)OOC1(O2)C2CC3CC(C2)CC1C3 (centres unmarked) [OZ102, Adamantane-2-spiro-3′-8′-(phenylaminocarbonyl)-1′,2′,4′-trioxa-8′-azaspiro[4.5]decane] | 7.0 days | 92% | 6.7 days | 73% | 19.7 days | 99.97% |  |  | 

— patent publication US6825230B2, “Spiro and dispiro 1,2,4-trixolane antimalarials” (Medicines for Malaria Venture MMV, priority 2002, dated 2004)
